Laboratory results: ChEMBL document CHEMBL1151098, “Design of pyrrolo-1,4-benzoxazine derivatives as inhibitors of 5-lipoxygenase and PAF antagonists with anthihistaminic properties” (Bioorg Med Chem Lett, 1994)
Calls of active or inactive are those of the source. The calls are words filed in the database; no cut-off is given here.

Legend:
[1] = biological target: T1, Polyunsaturated fatty acid 5-lipoxygenase (Rattus norvegicus, UniProt P12527); assay: Inhibitory activity against 5-lipoxygenase in rat neutrophils as inhibition of A 23,187-induced LTB4 production
T1 sequence (P12527 whole entry): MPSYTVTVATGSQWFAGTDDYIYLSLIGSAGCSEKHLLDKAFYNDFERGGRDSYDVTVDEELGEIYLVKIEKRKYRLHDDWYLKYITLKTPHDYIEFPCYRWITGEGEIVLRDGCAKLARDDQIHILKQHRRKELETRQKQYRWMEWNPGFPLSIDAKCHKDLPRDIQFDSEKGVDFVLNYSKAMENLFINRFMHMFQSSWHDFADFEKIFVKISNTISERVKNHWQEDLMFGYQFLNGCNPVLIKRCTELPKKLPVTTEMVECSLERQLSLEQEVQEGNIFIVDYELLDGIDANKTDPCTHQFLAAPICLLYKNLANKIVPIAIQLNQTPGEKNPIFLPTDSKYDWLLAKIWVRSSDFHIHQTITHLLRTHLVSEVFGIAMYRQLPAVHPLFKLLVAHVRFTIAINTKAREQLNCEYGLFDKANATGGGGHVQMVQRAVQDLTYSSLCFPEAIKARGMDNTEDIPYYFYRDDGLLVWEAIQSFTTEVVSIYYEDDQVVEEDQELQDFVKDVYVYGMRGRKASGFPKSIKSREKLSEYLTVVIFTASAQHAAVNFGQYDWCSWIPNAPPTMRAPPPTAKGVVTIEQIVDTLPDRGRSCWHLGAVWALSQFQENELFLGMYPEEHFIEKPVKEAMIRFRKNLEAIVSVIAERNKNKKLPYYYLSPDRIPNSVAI

[2] = In vivo inhibitory activity of histamine induced cutaneous reaction was determined at a conc. of 2.1E-5 mol/ Kg; assay type: functional
Oryctolagus cuniculus [3] = species on record: Oryctolagus cuniculus; assay: Inhibitory activity of PAF-induced aggregation was determined on rabbit platelets; assay type: functional
[4] = In vivo inhibitory activity of histamine induced cutaneous reaction was determined at a conc. of 2.1E-5 mol/ Kg; Not active; assay type: functional, organism-based
Oryctolagus cuniculus [5] = species on record: Oryctolagus cuniculus; assay: Inhibitory activity of PAF-induced aggregation was determined on rabbit platelets; Not active at 10e-5 M; assay type: functional

Structure (SMILES)	IC50 [1] [nM]	IC50 (Oryctolagus cuniculus [3]) [µM]	IC50 (Oryctolagus cuniculus [5])	Inhibition [2] [%]	inhibition [4]
COc1cc2c3c(c1)c(C)c(-c1cc(C)c(O)c(C)c1)n3CC(CCN1CCN(c3cc(C)ccn3)CC1)O2 (stereo not drawn)	7600	2.9	–	32	–
Cc1ccnc(N2CCN(CCC3Cn4c(-c5ccc(O)cc5)c(C)c5cccc(c54)O3)CC2)c1 (stereo not drawn)	3000	2.7	–	10	–
Cc1cccc(N2CCN(CCC3Cn4c(-c5ccc(O)cc5)c(C)c5cccc(c54)O3)CC2)n1 (stereo not drawn)	3300	10.2	–	39	–
COc1cc(-c2c(C)c3cccc4c3n2CC(CCN2CCN(c3cc(C)ccn3)CC2)O4)ccc1O (stereo not drawn)	3200	5	–	2	–
Cc1ccc(N2CCN(CCC3Cn4c(-c5ccc(O)cc5)c(C)c5cccc(c54)O3)CC2)nc1 (stereo not drawn)	3100	9.9	–	58	–

Compounds with a lower IC50 [1], results first:

IC50 [1] [nM]	IC50 (Oryctolagus cuniculus [3]) [µM]	IC50 (Oryctolagus cuniculus [5])	Structure (SMILES)	Inhibition [2] [%]	inhibition [4]
2300	7.2	–	Cc1cccnc1N1CCN(CCC2Cn3c(-c4ccc(O)cc4)c(C)c4cccc(c43)O2)CC1 (stereo not drawn)	57	–
1500	1.6	–	Cc1ccnc(N2CCN(CCC3Cn4c(-c5cc(C)c(O)c(C)c5)c(C)c5cccc(c54)O3)CC2)c1 (stereo not drawn)	15	–
2200	8.1	–	Cc1c(-c2ccc(O)cc2)n2c3c(cccc13)OC(CCN1CCN(c3ccccn3)CC1)C2 (stereo not drawn)	47	–
110	–	Not Active	COc1ccc2[nH]c(-c3cc(C)c(O)c(C)c3)c(C)c2c1	–	inactive
290	0.45	–	Cc1ccnc(N2CCN(CCC3Cn4c(-c5cc(C)c(O)c(C)c5)c(C)c5cc(O)cc(c54)O3)CC2)c1 (stereo not drawn)	37	–
1900	4.7	–	Cc1ccnc(N2CCN(CCC3Cn4c(-c5ccc(O)c(O)c5)c(C)c5cccc(c54)O3)CC2)c1 (stereo not drawn)	–	inactive
